Reference: patent publication US20210395651A1, “COMPOUNDS STABILIZING HYDROLASES IN LIQUIDS” (BASF SE, priority 2018, published 2021)

molecular target: T1, Lipolase® 100L (Thermomyces lanuginosus, UniProt O59952); assay: Lipase storage stability in liquid formulations at 37° C. (pNP-valerate activity); format: biochemical, Thermomyces lanuginosa; settings: base formulation I. (Lipolase 0.2 wt%, tested compound 2.5 wt%); 3 d storage at 37° C.
T1 construct: purchased Sigma-Aldrich
T1 sequence (O59952 23-291): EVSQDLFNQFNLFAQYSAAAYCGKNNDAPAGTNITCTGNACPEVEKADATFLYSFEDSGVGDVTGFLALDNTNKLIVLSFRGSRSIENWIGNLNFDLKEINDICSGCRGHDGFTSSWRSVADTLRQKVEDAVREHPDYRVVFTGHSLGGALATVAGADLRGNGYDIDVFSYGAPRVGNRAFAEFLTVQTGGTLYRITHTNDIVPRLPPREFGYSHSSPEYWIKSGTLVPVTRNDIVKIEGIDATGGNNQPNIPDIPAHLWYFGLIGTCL
Protocol: The storage stability of Lipase was assessed at 37° C.
Base test formulations were manufactured by making base formulations I to V by mixing the components according to Table 1.
The respective component (a) or comparative compound was added, if applicable, to the respective base formulation in amounts as indicated in Table 1.
Lipase used: Lipolase® 100L (CAS-No. 9001-62-1, EC-No. 232-619-9) was purchased from Sigma-Aldrich.
The amount of lipase as provided in Table 1 refers to active protein.
Water was added to accomplish the balance to 100.
Lipolase activity at certain points in time as indicated in Table 2 was be determined by employing pNitrophenol-valerate (2.4 mM pNP-C5 in 100 mM Tris pH 8.0, 0.01% Triton X100) as a substrate. The absorption at 405 nm was measured at 20° C. every 30 seconds over 5 minutes.
The slope (absorbance increase at 405 nm per minute) of the time dependent absorption-curve is directly proportional to the activity of the lipase.
The […] activity values provided in Table 2 were calculated referring to the 100% value determined in the reference formulation at the time 0.
The nomenclature of formulations is as follows: the Roman number before the full stop characterizes the base formulation, the Arabian number the type of compound (A.# compound according to invention (component (a)); (B.#) comparative compound).

Compound | lipase activity, 3 d [%]
CCOC(=O)CC(CC(=O)OCC)(OC(C)=O)C(=O)OCC [A.5, Acetyltriethylcitrate] | 100

same assay, conditions: base formulation I. (Lipolase 0.2 wt%, tested compound 2.5 wt%); 7 d storage at 37° C.

Compound | lipase activity, 7 d [%]
CCOC(=O)CC(CC(=O)OCC)(OC(C)=O)C(=O)OCC [A.5, Acetyltriethylcitrate] | 97

same assay, conditions: base formulation I. (Lipolase 0.2 wt%, tested compound 2.5 wt%); 14 d storage at 37° C.

Compound | lipase activity, 14 d [%]
CCOC(=O)CC(CC(=O)OCC)(OC(C)=O)C(=O)OCC [A.5, Acetyltriethylcitrate] | 92

same assay, conditions: base formulation I. (Lipolase 0.2 wt%, tested compound 2.5 wt%); 21 d storage at 37° C.

Compound | lipase activity, 21 d [%]
CCOC(=O)CC(CC(=O)OCC)(OC(C)=O)C(=O)OCC [A.5, Acetyltriethylcitrate] | 86

same assay, conditions: base formulation I. (Lipolase 0.2 wt%, tested compound 2.5 wt%); 28 d storage at 37° C.

Compound | lipase activity, 28 d [%]
CCOC(=O)CC(CC(=O)OCC)(OC(C)=O)C(=O)OCC [A.5, Acetyltriethylcitrate] | 81

same assay, conditions: base formulation I. (Lipolase 0.2 wt%, tested compound 2.5 wt%); 35 d storage at 37° C.

Compound | lipase activity, 35 d [%]
CCOC(=O)CC(CC(=O)OCC)(OC(C)=O)C(=O)OCC [A.5, Acetyltriethylcitrate] | 74

same assay, conditions: base formulation I. (Lipolase 0.2 wt%, tested compound 2.5 wt%); T0; relative to 100% value of reference formulation at time 0

Compound | lipase activity, T0 [%]
CCOC(=O)CC(CC(=O)OCC)(OC(C)=O)C(=O)OCC [A.5, Acetyltriethylcitrate] | 97

same assay, conditions: base formulation II. (Lipolase 0.2 wt%, tested compound 2.5 wt%); 3 d storage at 37° C.

Compound | lipase activity, 3 d [%]
CCOC(=O)CC(CC(=O)OCC)(OC(C)=O)C(=O)OCC [A.5, Acetyltriethylcitrate] | 98

same assay, conditions: base formulation II. (Lipolase 0.2 wt%, tested compound 2.5 wt%); 7 d storage at 37° C.

Compound | lipase activity, 7 d [%]
CCOC(=O)CC(CC(=O)OCC)(OC(C)=O)C(=O)OCC [A.5, Acetyltriethylcitrate] | 97

same assay, conditions: base formulation II. (Lipolase 0.2 wt%, tested compound 2.5 wt%); 14 d storage at 37° C.

Compound | lipase activity, 14 d [%]
CCOC(=O)CC(CC(=O)OCC)(OC(C)=O)C(=O)OCC [A.5, Acetyltriethylcitrate] | 93

same assay, conditions: base formulation II. (Lipolase 0.2 wt%, tested compound 2.5 wt%); 21 d storage at 37° C.

Compound | lipase activity, 21 d [%]
CCOC(=O)CC(CC(=O)OCC)(OC(C)=O)C(=O)OCC [A.5, Acetyltriethylcitrate] | 90

same assay, conditions: base formulation II. (Lipolase 0.2 wt%, tested compound 2.5 wt%); 28 d storage at 37° C.

Compound | lipase activity, 28 d [%]
CCOC(=O)CC(CC(=O)OCC)(OC(C)=O)C(=O)OCC [A.5, Acetyltriethylcitrate] | 85

same assay, conditions: base formulation II. (Lipolase 0.2 wt%, tested compound 2.5 wt%); 35 d storage at 37° C.

Compound | lipase activity, 35 d [%]
CCOC(=O)CC(CC(=O)OCC)(OC(C)=O)C(=O)OCC [A.5, Acetyltriethylcitrate] | 81

same assay, conditions: base formulation II. (Lipolase 0.2 wt%, tested compound 2.5 wt%); T0; relative to 100% value of reference formulation at time 0

Compound | lipase activity, T0 [%]
CCOC(=O)CC(CC(=O)OCC)(OC(C)=O)C(=O)OCC [A.5, Acetyltriethylcitrate] | 102

same assay, conditions: base formulation III. (Lipolase 0.2 wt%, tested compound 2.0 wt%); 3 d storage at 37° C.

Compound | lipase activity, 3 d [%]
CCOC(=O)CC(CC(=O)OCC)(OC(C)=O)C(=O)OCC [A.5, Acetyltriethylcitrate] | 95

same assay, conditions: base formulation III. (Lipolase 0.2 wt%, tested compound 2.0 wt%); 7 d storage at 37° C.

Compound | lipase activity, 7 d [%]
CCOC(=O)CC(CC(=O)OCC)(OC(C)=O)C(=O)OCC [A.5, Acetyltriethylcitrate] | 93

same assay, conditions: base formulation III. (Lipolase 0.2 wt%, tested compound 2.0 wt%); 14 d storage at 37° C.

Compound | lipase activity, 14 d [%]
CCOC(=O)CC(CC(=O)OCC)(OC(C)=O)C(=O)OCC [A.5, Acetyltriethylcitrate] | 88

same assay, conditions: base formulation III. (Lipolase 0.2 wt%, tested compound 2.0 wt%); 21 d storage at 37° C.

Compound | lipase activity, 21 d [%]
CCOC(=O)CC(CC(=O)OCC)(OC(C)=O)C(=O)OCC [A.5, Acetyltriethylcitrate] | 85

same assay, conditions: base formulation III. (Lipolase 0.2 wt%, tested compound 2.0 wt%); 28 d storage at 37° C.

Compound | lipase activity, 28 d [%]
CCOC(=O)CC(CC(=O)OCC)(OC(C)=O)C(=O)OCC [A.5, Acetyltriethylcitrate] | 80

same assay, conditions: base formulation III. (Lipolase 0.2 wt%, tested compound 2.0 wt%); 35 d storage at 37° C.

Compound | lipase activity, 35 d [%]
CCOC(=O)CC(CC(=O)OCC)(OC(C)=O)C(=O)OCC [A.5, Acetyltriethylcitrate] | 77

same assay, conditions: base formulation III. (Lipolase 0.2 wt%, tested compound 2.0 wt%); T0; relative to 100% value of reference formulation at time 0

Compound | lipase activity, T0 [%]
CCOC(=O)CC(CC(=O)OCC)(OC(C)=O)C(=O)OCC [A.5, Acetyltriethylcitrate] | 98
